From patent publication US9604975B2, “Indolyl-pyridone derivatives having checkpoint kinase 1 inhibitory activity” (Vernalis (R&D) Ltd., priority 2009, dated 2017)

Target: T1, CHK1 (Homo sapiens, UniProt O14757)
T1 construct: His; purchased Invitrogen
T1 sequence (O14757 1-476): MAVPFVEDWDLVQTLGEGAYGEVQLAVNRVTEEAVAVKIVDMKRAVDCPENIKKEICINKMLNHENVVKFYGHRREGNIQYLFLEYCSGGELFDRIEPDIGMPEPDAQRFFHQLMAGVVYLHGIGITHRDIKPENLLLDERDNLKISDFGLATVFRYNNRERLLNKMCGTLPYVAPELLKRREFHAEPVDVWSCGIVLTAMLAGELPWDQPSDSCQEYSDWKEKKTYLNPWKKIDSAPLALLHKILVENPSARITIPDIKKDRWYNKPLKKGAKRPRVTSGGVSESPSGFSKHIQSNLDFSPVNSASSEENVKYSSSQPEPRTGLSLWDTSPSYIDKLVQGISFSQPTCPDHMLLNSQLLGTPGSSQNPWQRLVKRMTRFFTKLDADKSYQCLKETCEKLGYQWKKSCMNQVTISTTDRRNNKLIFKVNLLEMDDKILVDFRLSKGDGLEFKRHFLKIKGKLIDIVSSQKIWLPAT
Assay: CHK1 Enzyme Assay (phosphorylation of Chktide peptide, 33P-ATP filter assay)
Assay type: biochemical
Conditions: 12.5 nM His-CHK1, 0.01 mM ATP, 40 minutes at 30° C.; read-out: CHK1 Enzyme Activity (IC50 range)
In short: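 His-CHK1 (12.5 nM) phosphorylating 14.8 μM Chktide with 0.01 mM ATP plus 33P-γ-ATP, in 50 mM Hepes-NaOH pH 7.5 with 0.1 mg/mL BSA. Incubated with inhibitor for 40 min at 30 °C. Stopped with phosphoric acid; phosphopeptide captured on filter and counted by scintillation.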

IC50 [nM] | Compound
< 100 | O=C(Nc1c[nH]c(=O)c(-c2cc3cc(CN4CCC(O)CC4)ccc3[nH]2)c1)c1cnn(Cc2ccc(Cl)cc2)c1 [Example 48, 1-(4-Chloro-benzyl)-1H-pyrazole-4-carboxylic acid {5-[5-(4-hydroxy-piperidin-1-ylmethyl)-1H-indol-2-yl]-6-oxo-1,6-dihydro-pyridin-3-yl}-amide]
< 100 | O=C(Nc1c[nH]c(=O)c(-c2cc3cc(OCCN4CCCCC4)ccc3[nH]2)c1)c1cnn(Cc2ccccc2)c1 [Example 149, 1-Benzyl-1H-pyrazole-4-carboxylic acid {6-oxo-5-[5-(2-piperidin-1-yl-ethoxy)-1H-indol-2-yl]-1,6-dihydro-pyridin-3-yl}-amide]
< 100 | O=C(Nc1c[nH]c(=O)c(-c2cc3cc(CN4CCCCC4)ccc3[nH]2)c1)c1cnn(CCc2ccc(F)cc2)c1 [Example 95, 1-[2-(4-Fluoro-phenyl)-ethyl]-1H-pyrazole-4-carboxylic acid [6-oxo-5-(5-piperidin-1-ylmethyl-1H-indol-2-yl)-1,6-dihydro-pyridin-3-yl]-amide]
< 100 | Cc1ccc(Cn2cc(C(=O)Nc3c[nH]c(=O)c(-c4cc5cc(OCCN6CCOCC6)ccc5[nH]4)c3)cn2)cc1 [Example 118, 1-(4-Methyl-benzyl)-1H-pyrazole-4-carboxylic acid {5-[5-(2-morpholin-4-yl-ethoxy)-1H-indol-2-yl]-6-oxo-1,6-dihydro-pyridin-3-yl}-amide]
< 100 | CN(C)Cc1cccc2[nH]c(-c3cc(NC(=O)c4cnn(Cc5ccccc5)c4)c[nH]c3=O)cc12 [Example 106, 1-Benzyl-1H-pyrazole-4-carboxylic acid [5-(4-dimethylaminomethyl-1H-indol-2-yl)-6-oxo-1,6-dihydro-pyridin-3-yl]-amide]
< 100 | Cc1ccc(Cn2cc(C(=O)Nc3c[nH]c(=O)c(-c4cc5cc(CN6C[C@@H](C)O[C@@H](C)C6)ccc5[nH]4)c3)cn2)cc1 [Example 74, 1-(4-Methyl-benzyl)-1H-pyrazole-4-carboxylic acid {5-[5-(cis-2,6-dimethyl-morpholin-4-ylmethyl)-1H-indol-2-yl]-6-oxo-1,6-dihydro-pyridin-3-yl}-amide]
< 100 | CC(C)c1ccc(Cn2cc(C(=O)Nc3c[nH]c(=O)c(-c4cc5cc(OCCCN6CCCCC6)ccc5[nH]4)c3)cn2)cc1 [Example 150, 1-(4-Isopropylbenzyl)-1H-pyrazole-4-carboxylic acid-{6-oxo-5-[5-(3-piperidin-1-ylpropoxy)-1H-indol-2-yl]-1,6-dihydropyridin-3-yl}-amide]
< 100 | CCN(CC)Cc1ccc2[nH]c(-c3cc(NC(=O)c4cnn(Cc5ccc(C)cc5)c4)c[nH]c3=O)cc2c1 [Example 75, 1-(4-Methyl-benzyl)-1H-pyrazole-4-carboxylic acid [5-(5-diethylaminomethyl-1H-indol-2-yl)-6-oxo-1,6-dihydro-pyridin-3-yl]-amide]
< 100 | O=C(Nc1c[nH]c(=O)c(-c2cc3cc(CN4CC[C@H](F)C4)ccc3[nH]2)c1)c1cnn(Cc2ccccc2)c1 [Example 175, 1-Benzyl-1H-pyrazole-4-carboxylic acid {5-[5-((S)-3-fluoro-pyrrolidin-1-ylmethyl)-1H-indol-2-yl]-6-oxo-1,6-dihydro-pyridin-3-yl}-amide]
< 100 | O=C(Nc1c[nH]c(=O)c(-c2cc3cc(CN4CC[C@@H](F)C4)ccc3[nH]2)c1)c1cnn(Cc2ccccc2)c1 [Example 174, 1-Benzyl-1H-pyrazole-4-carboxylic acid {5-[5-((R)-3-fluoro-pyrrolidin-1-ylmethyl)-1H-indol-2-yl]-6-oxo-1,6-dihydro-pyridin-3-yl}-amide]
< 100 | CN1CCN(Cc2ccc3[nH]c(-c4cc(C(=O)Nc5cnn(Cc6ccc(F)c(F)c6)c5)c[nH]c4=O)cc3c2)CC1 [Example 104, 5-[5-(4-Methyl-piperazin-1-ylmethyl)-1H-indol-2-yl]-6-oxo-1,6-dihydro-pyridine-3-carboxylic acid [1-(3,4-difluoro-benzyl)-1H-pyrazol-4-yl]-amide]
< 100 | CC1CCN(Cc2ccc3[nH]c(-c4cc(NC(=O)c5cnn(Cc6ccc(F)cc6)c5)c[nH]c4=O)cc3c2)CC1 [Example 82, 1-(4-Fluoro-benzyl)-1H-pyrazole-4-carboxylic acid {5-[5-(4-methyl-piperidin-1-ylmethyl)-1H-indol-2-yl]-6-oxo-1,6-dihydro-pyridin-3-yl}-amide]
< 100 | O=C(Nc1cnn(Cc2ccccc2)c1)c1c[nH]c(=O)c(-c2cc3ccccc3[nH]2)c1 [Example 1, 5-(1H-Indol-2-yl)-6-oxo-1,6-dihydro-pyridine-3-carboxylic acid (1-benzyl-1H-pyrazol-4-yl)-amide]
< 100 | O=C(Nc1c[nH]c(=O)c(-c2cc3ccccc3[nH]2)c1)c1cnn(Cc2ccc(F)cc2)c1 [Example 21, 1-(4-Fluoro-benzyl)-1H-pyrazole-4-carboxylic acid [5-(1H-indol-2-yl)-6-oxo-1,6-dihydro-pyridin-3-yl]-amide]
< 100 | CC1CCN(Cc2ccc3[nH]c(-c4cc(NC(=O)c5cnn([C@H](C)c6ccccc6)c5)c[nH]c4=O)cc3c2)CC1 [Example 167, 1-((R)-1-Phenyl-ethyl)-1H-pyrazole-4-carboxylic acid {5-[5-(4-methyl-piperidin-1-ylmethyl)-1H-indol-2-yl]-6-oxo-1,6-dihydro-pyridin-3-yl}-amide]
< 100 | O=C(Nc1cnn(Cc2ccc(F)c(F)c2)c1)c1c[nH]c(=O)c(-c2cc3ccccc3[nH]2)c1 [Example 11, 5-(1H-Indol-2-yl)-6-oxo-1,6-dihydro-pyridine-3-carboxylic acid [1-(3,4-difluoro-benzyl)-1H-pyrazol-4-yl]-amide]
< 100 | O=C(Nc1cnn(Cc2ccc(F)c(F)c2)c1)c1c[nH]c(=O)c(-c2cc3cc(CN4CCC(F)CC4)ccc3[nH]2)c1 [Example 97, 5-[5-(4-Fluoro-piperidin-1-ylmethyl)-1H-indol-2-yl]-6-oxo-1,6-dihydro-pyridine-3-carboxylic acid [1-(3,4-difluoro-benzyl)-1H-pyrazol-4-yl]-amide]
< 100 | CN1CCN(C(=O)c2ccc3[nH]c(-c4cc(C(=O)Nc5cnn(Cc6ccccc6)c5)c[nH]c4=O)cc3c2)CC1 [Example 15, 5-[5-(4-Methyl-piperazine-1-carbonyl)-1H-indol-2-yl]-6-oxo-1,6-dihydro-pyridine-3-carboxylic acid (1-benzyl-1H-pyrazol-4-yl)-amide]
< 100 | CN(Cc1ccc2[nH]c(-c3cc(NC(=O)c4cnn(Cc5ccc(F)cc5)c4)c[nH]c3=O)cc2c1)C1CCCCC1 [Example 84]
500 to 1500 | N#Cc1ccc(Cn2cc(NC(=O)c3c[nH]c(=O)c(-c4cc5ccccc5[nH]4)c3)cn2)cc1 [Example 7, 5-(1H-Indol-2-yl)-6-oxo-1,6-dihydro-pyridine-3-carboxylic acid [1-(4-cyano-benzyl)-1H-pyrazol-4-yl]-amide]
< 100 | CCc1cccc(Cn2cc(C(=O)Nc3c[nH]c(=O)c(-c4cc5cc(OCCN(CC)CC)ccc5[nH]4)c3)cn2)c1 [Example 130, 1-(3-Ethyl-benzyl)-1H-pyrazole-4-carboxylic acid {5-[5-(2-diethylamino-ethoxy)-1H-indol-2-yl]-6-oxo-1,6-dihydro-pyridin-3-yl}-amide]
100 to 500 | Cc1[nH]c(=O)c(-c2cc3ccccc3[nH]2)cc1C(=O)Nc1cnn(Cc2ccc(F)c(F)c2)c1 [Example 19, 5-(1H-Indol-2-yl)-2-methyl-6-oxo-1,6-dihydro-pyridine-3-carboxylic acid [1-(3,4-difluoro-benzyl)-1H-pyrazol-4-yl]-amide]
< 100 | Cc1ccc(Cn2cc(C(=O)Nc3c[nH]c(=O)c(-c4cc5cc(CN(C)CCO)ccc5[nH]4)c3)cn2)cc1 [Example 43, 1-(4-Methyl-benzyl)-1H-pyrazole-4-carboxylic acid [5-(5-{[(2-hydroxy-ethyl)-methyl-amino]-methyl}-1H-indol-2-yl)-6-oxo-1,6-dihydro-pyridin-3-yl]-amide]
< 100 | O=C(Nc1cnn(Cc2cc(F)cc(F)c2)c1)c1c[nH]c(=O)c(-c2cc3ccccc3[nH]2)c1 [Example 13, 5-(1H-Indol-2-yl)-6-oxo-1,6-dihydro-pyridine-3-carboxylic acid [1-(3,5-difluoro-benzyl)-1H-pyrazol-4-yl]-amide]
100 to 500 | O=C(Nc1c[nH]c(=O)c(-c2cc3ccccc3[nH]2)c1)c1cnn(Cc2ccc(C(F)(F)F)cc2)c1 [Example 25, 1-(4-Trifluoromethyl-benzyl)-1H-pyrazole-4-carboxylic acid [5-(1H-indol-2-yl)-6-oxo-1,6-dihydro-pyridin-3-yl]-amide]
< 100 | Cc1ccc(Cn2cc(C(=O)Nc3c[nH]c(=O)c(-c4cc5cc(N6CCN(C)CC6)ccc5[nH]4)c3)cn2)cc1 [Example 112, 1-(4-Methyl-benzyl)-1H-pyrazole-4-carboxylic acid {5-[5-(4-methyl-piperazin-1-yl)-1H-indol-2-yl]-6-oxo-1,6-dihydro-pyridin-3-yl}-amide]
< 100 | CC(C)c1ccc(Cn2cc(C(=O)Nc3c[nH]c(=O)c(-c4cc5cc(CN6CCC(F)CC6)ccc5[nH]4)c3)cn2)cc1 [Example 73, 1-(4-isopropylbenzyl)-1H-pyrazole-4-carboxylic acid {5-[5-(4-fluoropiperidin-1-ylmethyl)-1H-indol-2-yl)-6-oxo-1,6-dihydropyridin-3-yl}-amide]
